Measured values from ChEMBL document CHEMBL1201862, “PubChem BioAssay data set” (2004).
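Following 48 hours of exposure in 96-well plates, responses at five concentrations were used to interpolate endpoints linearly. GI50 is the concentration that inhibits growth by half.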 Active and inactive are the calls of the source. Rule as the data show it: active = GI50 up to about 1.1 µM and inactive = higher.

Columns and labels:
Assay in all cases: NCI anticancer screen, dose series, 48 h
CAKI-1 = tested on: CAKI-1
DU-145 = tested on: DU-145
EKVX = tested on: EKVX
HCT-116 = tested on: HCT-116
IGROV-1 = tested on: IGROV-1
KM12 = tested on: KM12
LOX IMVI = tested on: LOX IMVI
MCF7 = tested on: MCF7
MDA-MB-435 = tested on: MDA-MB-435
NCI-H23 = tested on: NCI-H23
PC-3 = tested on: PC-3
SF-295 = tested on: SF-295
SK-MEL-5 = tested on: SK-MEL-5
SNB-19 = tested on: SNB-19
SNB-75 = tested on: SNB-75
SR = tested on: SR
U-251 = tested on: U-251
SK-MEL-2 = tested on: SK-MEL-2
HCC 2998 = tested on: HCC 2998

Measured: GI50

COc1ccc(C2Oc3c(cccc3OC)C=C2[N+](=O)[O-])cc1OC (stereo not drawn)
inactive: CAKI-1 13.8 µM | DU-145 11.7 µM | EKVX 45.2 µM | HCT-116 4.55 µM | IGROV-1 11.9 µM | KM12 9.98 µM | LOX IMVI 2.49 µM | MCF7 4.12 µM | MDA-MB-435 2.16 µM | NCI-H23 4.41 µM | PC-3 4.08 µM | SF-295 20.6 µM | SK-MEL-5 4.14 µM | SNB-19 17.3 µM | SNB-75 7.21 µM | SR 2.59 µM | U-251 3.97 µM

COC(=O)Nc1nc2cc(NC(=O)c3ccc(I)cc3)ccc2[nH]1
inactive: CAKI-1 > 100 µM | DU-145 > 100 µM | EKVX > 100 µM | HCT-116 > 100 µM | IGROV-1 > 100 µM | KM12 > 100 µM | LOX IMVI > 100 µM | MCF7 > 100 µM | MDA-MB-435 > 100 µM | NCI-H23 > 100 µM | PC-3 > 100 µM | SF-295 > 100 µM | SK-MEL-2 > 100 µM | SK-MEL-5 > 100 µM | SNB-19 > 100 µM | SNB-75 96.8 µM | U-251 > 100 µM

O=C(NNc1nc(-c2ccccc2)cs1)Nc1ccccc1
inactive: CAKI-1 43.3 µM | DU-145 31.8 µM | EKVX 32 µM | HCC 2998 25.6 µM | HCT-116 25.5 µM | IGROV-1 34.8 µM | KM12 32.9 µM | MCF7 25.3 µM | MDA-MB-435 22.2 µM | NCI-H23 20.2 µM | PC-3 17.3 µM | SF-295 28.1 µM | SK-MEL-2 16.1 µM | SK-MEL-5 20.7 µM | SNB-19 44.1 µM | SNB-75 23.2 µM | U-251 22.2 µM

CCN(CC)CCOCC1CCCN2CCCCC12 (stereo not drawn)
inactive: CAKI-1 > 100 µM | DU-145 > 100 µM | EKVX > 100 µM | HCC 2998 > 100 µM | HCT-116 > 100 µM | KM12 > 100 µM | LOX IMVI > 100 µM | MCF7 > 100 µM | MDA-MB-435 > 100 µM | NCI-H23 > 100 µM | PC-3 > 100 µM | SF-295 > 100 µM | SK-MEL-2 > 100 µM | SK-MEL-5 > 100 µM | SNB-19 > 100 µM | SNB-75 > 100 µM | U-251 > 100 µM

O=C(C1OC1c1cccc([N+](=O)[O-])c1)C12CC3CC(CC(C3)C1)C2 (stereo not drawn)
inactive: CAKI-1 8.83 µM | DU-145 13.8 µM | EKVX 13.2 µM | HCC 2998 6.73 µM | HCT-116 2.14 µM | IGROV-1 6.53 µM | KM12 3.78 µM | LOX IMVI 1.72 µM | MCF7 2.86 µM | MDA-MB-435 3.52 µM | NCI-H23 5.74 µM | PC-3 5.5 µM | SF-295 6.11 µM | SK-MEL-2 14.3 µM | SK-MEL-5 10.5 µM | SNB-19 8.13 µM | SNB-75 6.78 µM | U-251 2.88 µM

COc1ccccc1C(=O)OCC1CCCN2CCCCC12 (stereo not drawn)
inactive: CAKI-1 > 100 µM | DU-145 > 100 µM | EKVX 81.7 µM | HCC 2998 17.8 µM | HCT-116 40.3 µM | KM12 18.2 µM | LOX IMVI 17.1 µM | MCF7 42.4 µM | MDA-MB-435 64.3 µM | NCI-H23 > 100 µM | PC-3 85.5 µM | SF-295 26.3 µM | SK-MEL-2 54.3 µM | SK-MEL-5 34.4 µM | SNB-19 35.9 µM | SNB-75 20.6 µM | U-251 26 µM

COC(=O)[C@H](COC(=O)/C=C/c1ccc(OC(C)=O)c(OC(C)=O)c1)NC(=O)/C=C/c1ccc(OC(C)=O)c(OC(C)=O)c1
inactive: CAKI-1 14 µM | DU-145 14.1 µM | EKVX 15.5 µM | HCC 2998 17.6 µM | HCT-116 16.7 µM | IGROV-1 18.5 µM | KM12 16.2 µM | LOX IMVI 18.4 µM | MCF7 38.4 µM | MDA-MB-435 19.4 µM | NCI-H23 22.4 µM | PC-3 15 µM | SK-MEL-2 18.5 µM | SK-MEL-5 16.4 µM | SNB-19 15.8 µM | SNB-75 14.6 µM | U-251 29.1 µM

COc1cc(/C=C2\CC3C4CC[C@H]5C[C@@H](O)CC[C@]5(C)C4CC[C@]3(C)\C2=N\O)cc(OC)c1OC (stereo partly drawn)
inactive: CAKI-1 4.09 µM | DU-145 13.1 µM | EKVX 8.81 µM | HCC 2998 10.1 µM | HCT-116 6.19 µM | IGROV-1 23 µM | KM12 6.9 µM | LOX IMVI 11.5 µM | MCF7 4.05 µM | MDA-MB-435 7.41 µM | NCI-H23 15.6 µM | PC-3 5.43 µM | SF-295 3.97 µM | SK-MEL-2 11.7 µM | SK-MEL-5 5.21 µM | SNB-19 29.7 µM | SNB-75 13.4 µM | U-251 10.6 µM
